Legend:
[1] = test system: OVA-induced acute allergic asthma; test: OVA-induced acute allergic asthma model; type: in vivo, BALB/c mice
Experimental: On Days 1 and 14, BALB/c mice (6–8 weeks) received an intraperitoneal injection (i.p.) of a solution containing 0.5 mg/ml OVA and 5 mg/ml Alum (described in Fig. 2). Untreated controls were injected with a solution of 5 mg/ml Alum. […] Untreated control groups included mice challenged with PBS alone. On day 29, mice were sacrificed, and samples were collected for further analysis.
BALF was performed to obtain leukocytes from alveolar space. The trachea was exposed and a 1.7-mm-outside-diameter polyethylene catheter was inserted. BAL was performed by washing the lungs three-times with three different 500 µl aliquots of PBS. BALF samples were centrifuged at 600 × g for 10 min at 4 °C on a histology glass slide and stained with Diff Quick (MICROPTIC, #DQ-ST). The number of leukocytes and differential counts of different population were obtained evaluating the percentage leukocyte populations over the total cell number.
IL-5, IL-13, eotaxin, TGF-β, KC, IL-17A, and MCP-1 levels in the BALF and anti-OVA IgE levels in serum were measured by ELISA technique using commercial DuoSet kits R&D Systems according to the instructions of the manufacturer. Results were expressed in levels of cytokines per ml of […] (pg/ml) or arbitrary units (A.U.).
Immunohistochemistry for CD18 was performed using the streptavidin-biotin-peroxidase method in formalin-fixed, paraffin-embedded tissue sections (5 µm thick) mounted on poly-L-lysine-coated microscope slides. Lung cross-sections were deparaffinized and rehydrated through xylene and graded alcohols. After antigen retrieval, endogenous peroxidase was blocked (15 min) with 3% (v/v) hydrogen peroxide and washed in phosphate-buffered saline (PBS). Sections were incubated overnight (4 °C) with primary rabbit anti-CD18 antibody (Acris Antibodies GmbH, Germany, Cat. Number B0842-1) diluted 1:400 in PBS plus bovine serum albumin (PBS-BSA) or rabbit anti/PAkt (S473) diluted 1:100 in PBS/BSA. The slides were then incubated with biotinylated goat anti-rabbit antibody (Dako Agilent Pathology Solution, USA) diluted 1:1000 in PBS/BSA. After washing, the slides were incubated with avidin-biotin-horseradish peroxidase conjugate (Dako Agilent Pathology Solution, USA) for 30 min, according to the manufacturer’s instructions. CD18 and PAkt-positive cells were visualized with the chromogen 3,3′-diaminobenzidine (DAKO liquid DAB + substrate chromogen system, CA, USA). Slides were counterstained with Harry’s hematoxylin, dehydrated in a graded alcohol series, cleared in xylene, and cover slipped.
Lung, liver, and heart samples were collected for western blot detection of akt phosphorilation levels. Protein samples were resolved by 10% SDS-PAGE and transferred on to PVDF (Immobilon™-P) membranes. The membranes were blocked with 5% BSA in 1x TBS with 0.3% Tween 20 for 30 min at […]. Then, the membranes were incubated overnight at 4 °C with primary antibodies (phosphorylated Akt serine 473, 1:1000, Cell Signaling Technology, Cat. Number 4060) and 1 h with HRP-conjugated secondary antibody (1:10000). The blots were visualized in ECL solution for 1 min and images were captured on Luminescent Image Analyser (ChemiDoc Imaging Systems, Bio-Rad Laboratories, USA). For loading control, the blots were striped and reassessed with pan Akt (1:1000) antibody. For quantification, specific phosphorylation was calculated as the ratio of signals for phosphorylated Akt to the signal of total Akt detected. Values of unstimulated samples were set to 1.0. Uncropped scans of the most important blots are provided as a supplementary figure in the Supplementary Information (Supplementary Fig. 15).

[2] = Microsomial stability, human; type: in vitro ADME; details: human liver microsomes, NADPH
Experimental: To define whether this prodrug was suitable for inhaled administration, CL27c was studied to evaluate selected ADME (absorption, distribution, metabolism, and excretion) and pharmacokinetic properties. First, stability of CL27c and CL27e was analyzed in mouse plasma (Supplementary Table 1) and in mouse, rat, and human liver microsomes in the presence of nicotinamide adenine dinucleotide phosphate (NADPH; Supplementary Table 2). Next, clearance of CL27c was analyzed in C57BL/6J mice after either intra-venous or oral administration. […] Clearance of CL27c and CL27e after oral administration could not be determined due to their low bioavailability (Supplementary Table 3). Next, pharmacokinetics after inhalation was studied in C57BL/6J mice after delivering an aerosolized micro-suspension of CL27c. As shown in Table 1 and Supplementary Fig. 1b, CL27c dose-dependently reached the lungs and its metabolite CL27e was detectable after inhalation of the highest dose. […] Therefore, the inhaled prodrug promotes local effects but prevents systemic absorption of pharmacologically relevant amounts of the active compound. […]
All tests for the microsomial stability of CL27c were conducted by the Istituto di Ricerche Biomediche (RBM) SpA – Merck Serono, Ivrea, Italy. […]
Then, cells […]
pretreated with different doses of CL27c were incubated at 37°C and 5% CO 2 for 10 minutes. […]

With `COC(=O)c1cccc(Cn2cc(-c3cccc4c(=O)cc(N5CCOCC5)[nH]c34)nn2)c1` [CL27c] the “TGF-β in lung tissue lysates” value ([1]; OVA-challenged mice as described in Fig. 2, inhaled CL27c) was “reduction of transforming growth factor-β (TGF-β) and IL-13 to the level detected in unsensitized controls”, the “IL-10 in lung tissue lysates” value ([1]; OVA-challenged mice as described in Figure 2, inhaled CL27c) was “increased pulmonary abundance of IL-10” and the “efficacy on OVA-induced acute asthma” value ([1]; highest dose, 20 mg/ml) was “inconsistent outcomes”. The “IL-5 and IL-13 levels in lung tissue” value ([1]; inhaled CL27c 2 mg/ml) was “restored both IL-5 and IL-13 to the levels detected in unsensitized control mice”, the “reduction of eosinophils accumulation in BALF” value ([1]; inhaled CL27c 2 mg/ml) was 70% and the “reduction of lymphocytes accumulation in BALF” value ([1]; inhaled CL27c 2 mg/ml) was 72%. For the same compound, the “reduction of macrophages accumulation in BALF” value ([1]; inhaled CL27c 2 mg/ml) was 60%, the “reduction of neutrophils accumulation in BALF” value ([1]; inhaled CL27c 2 mg/ml) was 68% and the “Akt phosphorylation in lung lysates and sections” value ([1]; inhaled CL27c 2 mg/ml, day 29) was “decrease in Akt phosphorylation”. For the same compound, the “CD18-positive leukocyte recruitment to the lung” value ([1]; inhaled CL27c 2 mg/ml, immunohistochemistry) was “reduced leukocyte recruitment”, the “efficacy on OVA-induced acute asthma” value ([1]; lowest dose, 0.2 mg/ml) was “no efficacy” and the “Clint (intrinsic clearance)” value [2] was 0.1 ± 0.03 ml/min/mg prot. It also gave a t1/2 [2] of 10.2 ± 2.2 min.
